Data from the supplement of paper PMC10307832.

Key:
Assay in all cases: relative viability (nuclei count vs DMSO), 5 days (fraction); higher = more cells survive
Venetoclax + Bortezomib = compound: CC1(C)CCC(CN2CCN(c3ccc(C(=O)NS(=O)(=O)c4ccc(NCC5CCOCC5)c([N+](=O)[O-])c4)c(Oc4cnc5[nH]ccc5c4)c3)CC2)=C(c2ccc(Cl)cc2)C1 [Venetoclax] + CC(C)C[C@H](NC(=O)[C@H](Cc1ccccc1)NC(=O)c1cnccn1)B(O)O [Bortezomib] (partner 0.002 µM)
In short: (§1)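 Each reported value is a median over duplicate plates. It expresses relative viability: treated-well nuclei count divided by vehicle-well nuclei count. Lung cancer cell lines in 1536-well plates were dosed by pin tool a day after seeding, alone with one drug or with a fixed anchor-drug dose plus five library-drug doses (not always all listed) in √10 steps, and nuclei were counted after 5 days.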

Venetoclax + Olaparib = compound: CC1(C)CCC(CN2CCN(c3ccc(C(=O)NS(=O)(=O)c4ccc(NCC5CCOCC5)c([N+](=O)[O-])c4)c(Oc4cnc5[nH]ccc5c4)c3)CC2)=C(c2ccc(Cl)cc2)C1 [Venetoclax] + O=C(c1cc(Cc2n[nH]c(=O)c3ccccc23)ccc1F)N1CCN(C(=O)C2CC2)CC1 [Olaparib] (partner 8 µM)
In short: as §1

Venetoclax + Lapatinib = compound: CC1(C)CCC(CN2CCN(c3ccc(C(=O)NS(=O)(=O)c4ccc(NCC5CCOCC5)c([N+](=O)[O-])c4)c(Oc4cnc5[nH]ccc5c4)c3)CC2)=C(c2ccc(Cl)cc2)C1 [Venetoclax] + CS(=O)(=O)CCNCc1ccc(-c2ccc3ncnc(Nc4ccc(OCc5cccc(F)c5)c(Cl)c4)c3c2)o1 [Lapatinib] (partner 2 µM)
In short: as §1

Venetoclax + Tozasertib = compound: CC1(C)CCC(CN2CCN(c3ccc(C(=O)NS(=O)(=O)c4ccc(NCC5CCOCC5)c([N+](=O)[O-])c4)c(Oc4cnc5[nH]ccc5c4)c3)CC2)=C(c2ccc(Cl)cc2)C1 [Venetoclax] + Cc1cc(Nc2cc(N3CCN(C)CC3)nc(Sc3ccc(NC(=O)C4CC4)cc3)n2)n[nH]1 [Tozasertib] (partner 0.1 µM)
In short: as §1

Cell Line	relative viability (Venetoclax + Bortezomib; first compound 0.01 µM)	relative viability (Venetoclax + Bortezomib; first compound 0.03162 µM)	relative viability (Venetoclax + Bortezomib; first compound 0.1 µM)	relative viability (Venetoclax + Bortezomib; first compound 0.3162 µM)	relative viability (Venetoclax + Bortezomib; first compound 1 µM)	relative viability (Venetoclax + Olaparib; first compound 0.01 µM)	relative viability (Venetoclax + Olaparib; first compound 0.03162 µM)	relative viability (Venetoclax + Olaparib; first compound 0.1 µM)	relative viability (Venetoclax + Olaparib; first compound 0.3162 µM)	relative viability (Venetoclax + Olaparib; first compound 1 µM)	relative viability (Venetoclax + Lapatinib; first compound 0.01 µM)	relative viability (Venetoclax + Lapatinib; first compound 0.03162 µM)	relative viability (Venetoclax + Lapatinib; first compound 0.1 µM)	relative viability (Venetoclax + Lapatinib; first compound 0.3162 µM)	relative viability (Venetoclax + Lapatinib; first compound 1 µM)	relative viability (Venetoclax + Tozasertib; first compound 0.01 µM)	relative viability (Venetoclax + Tozasertib; first compound 0.03162 µM)	relative viability (Venetoclax + Tozasertib; first compound 0.1 µM)	relative viability (Venetoclax + Tozasertib; first compound 0.3162 µM)	relative viability (Venetoclax + Tozasertib; first compound 1 µM)
NCI-H1355	1.27	1.23	1.2	1.11	1.18	0.772	0.815	0.774	0.734	0.757	1.02	1.02	0.968	0.93	0.993	0.548	0.62	0.482	0.549	0.42
NCI-H2085	0.976	1.14	1.07	0.923	0.946	0.676	0.758	0.744	0.755	0.75	0.658	0.849	0.749	0.821	0.747	0.833	0.77	0.757	0.761	0.815
NCI-H322M	1.37	1.18	1.27	1.2	1.2	0.738	0.799	0.76	0.764	0.785	0.659	0.601	0.552	0.533	0.57	0.495	0.477	0.477	0.555	0.493
NCI-H1915	0.972	0.965	0.908	0.971	0.919	0.275	0.288	0.264	0.272	0.231	0.966	0.935	0.918	0.926	0.9	0.452	0.454	0.392	0.433	0.427
HCC-827	1.04	1.06	1.08	1.11	1.01	0.647	0.703	0.642	0.603	0.655	0.234	0.216	0.174	0.191	0.233	0.417	0.413	0.4	0.416	0.385
LXF-289	1.03	0.966	1	1.01	0.87	1.07	1.09	1.1	0.993	0.94	0.956	0.925	0.874	0.906	0.809	0.217	0.218	0.187	0.216	0.213
LC-2-ad	0.834	1.02	0.968	0.907	0.94	0.735	0.696	0.664	0.702	0.708	0.986	0.899	0.876	0.973	0.938	0.418	0.398	0.425	0.535	0.433
